Values of other authors in patent US20060177860A1, “Genetic markers in the HLA-DQBI gene associated with an adverse hematological response to drugs” (priority 2005, published 2006).

Details: as taught by U.S. Pat. No. 5,312,819

O=C1O[C@H]([C@@H](O)CO)C(O)=C1O [L-ascorbic acid]
effect of radical scavenger on formation of free radicals of clozapine: reduces the formation of free radicals of clozapine
